From patent US20080090881A1, “TREATMENT OF DIABETES WITH THIAZOLIDINEDIONE AND METFORMIN” (SmithKline Beecham plc, priority 1997, published 2008)

Test: clinical
Conditions: male, human, plasma, po

Tmax	half-life	SMILES
3 h	3.24 h	CN(CCOc1ccc(CC2SC(=O)NC2=O)cc1)c1ccccn1 (stereo not drawn) [Compound (I), 5-[4-[2-(N-methyl-N-(2-pyridyl)amino)ethoxy]benzyl]thiazolidine-2,4-dione]
3 h		CN(C)C(=N)N=C(N)N [M, 1,1-Dimethylbiguanidine, reference compound]
